Measured values reported in US20260034135A1, “USE OF N6-BENZYLAMINOPURINE AS AN APPETITE SUPPRESSANT” (THE GOVERNING COUNCIL OF THE UNIVERSITY OF TORONTO, priority 2022, published 2026).

Legend:
Format in all cases: cell-based, mouse
mHypoE-41 cell line = experiment: Gene expression by qRT-PCR in mHypoE-41 hypothalamic cell line; conditions: 16 hr
Protocol: (§1) Hypothalamic neurons from embryonic and adult mice were previously immortalized to generate the clonal cell lines mHypoE-46, mHypoE-44, mHypoE-41, mHypoE-38, mHypoA-59, a FAC-sorted POMC/GFP mouse-derived cell line, mHypoA-POMC/GFP-2, and a mixed culture mHypoA-Bmal1-WT/F cell line (6, 13, 14). The mHypoE-46, mHypoE-44, and mHypoA-Bmal1-WT/F lines were cultured in DMEM containing 1000 mg/L glucose supplemented with 5% FBS and 1% pen/strep. The mHypoE-41, mHypoE-38, and mHypoA-59 cell lines were cultured in DMEM containing 4500 mg/L glucose supplemented with 2% FBS and 1% pen/strep. The mHypoA-POMC/GFP-2 line was cultured in DMEM containing 1000 mg/L glucose supplemented with 2% FBS and 1% pen/strep. All cells were maintained in 5% CO2 at 37° C. BAP was initially dissolved in DMSO solvent (vehicle control) to achieve 1000x the intended dose. The BAP solution was then diluted 1:1000 with the growth media used for the cell line. For co-treatment experiments, the vehicle control for ATP, UDP, and PKI was water, and for the H89 PKA inhibitor was DMSO. Neuropeptide gene expression levels were determined by qRT-PCR.
(§2) For cell culture experiments, total RNA was isolated using PureLink RNA isolation kit (Thermofisher Scientific, Burlington, ON, Canada) according to the manufacturer's instruction with on column DNase step (PureLink DNAse kit) or DNase I treatment to remove genomic DNA. For mouse experiments, total RNA was isolated using mirVana PARIS RNA and native protein isolation kit (Thermofisher Scientific). RNA quality and quantity were measured using Nanodrop 2000 and 500-1000 ng of complimentary DNA (cDNA) was synthesized with High Capacity cDNA Reverse Transcription kit (Applied biosystems, Thermofisher Scientific). Quantitative reverse transcription polymerase chain reaction (RT-qPCR) was performed with 12.5 ng of cDNA amplified with Platinum SYBR green qPCR SuperMix-UDG with ROX on an Applied Biosystems Prism 7900HT or PowerTrack Green Master Mix on an Applied Biosystems QuantStudio 5 and gene specific primers as per manufacturer's instructions (Table 1). Data was analyzed using […] and normalized to reference gene, either 60S ribosomal protein L7 (Rpl7) or Histone 3a (His).

Akt (PKB) = experiment: Akt (Ser473) phosphorylation by Western blot in mHypoE-46 after insulin re-exposure
Protocol: mHypoE-46 cells were serum starved in 5.5 mM glucose (LG) DMEM for 1 hour prior to treatment with vehicle (0.1% DMSO), 100 µM BAP or H20, […] 5-Aminoimidazole-4-carboxamide ribonucleotide (AICAR) or 0 mM glucose DMEM. Protein was harvested using 1× cell lysis buffer (Cell Signaling Technologies, Inc, CST) containing protease and phosphatase inhibitors. A total of 30 μg protein was separated on a 12% SDS-polyacrylamide gels and transferred onto PVDF membranes. […] Protein density was quantified using ImageJ or the iBright Imaging System.
In order to determine if insulin signaling and sensitivity may be affected by BAP, we assessed the activity and expression of the key signal transduction cascade activated by insulin, the PI3K/Akt pathway. mHypoE-46 neurons were co-treated with 100 μM insulin or vehicle control and 100 μM BAP and vehicle control for 24 hours. […] The phosphorylation level of Akt (PKB), the downstream kinase in the PI3K/Akt signal transduction pathway was assessed. […]

mHypoE-46 cell line = experiment: Gene expression by qRT-PCR in mHypoE-46 hypothalamic cell line; parameters: insulin receptor subunit beta (Insrb) expression by qRT-PCR: dose or concentration left out as unconfirmed; conditions: for effect of PKA inhibition on BAP effect on Npy expression: n=2
Protocol: as §1, §2

[1] = tested on: mHypoA-Bmal1-WT/F cell line; experiment: Gene expression by qRT-PCR in mHypoA-Bmal1-WT/F hypothalamic cell line; conditions: 100 μM BAP, 16 hr
Protocol: as §1
as §2, with “For mouse experiments, total RNA was isolated using mirVana PARIS RNA and native protein isolation kit (Thermofisher Scientific).” left out

[2] = 100 μM BAP, validation of RNAseq (FIG. 42A 4 hr, 42B 16 hr)

c1ccc(CNc2ncnc3nc[nH]c23)cc1 [BAP, N6-benzylaminopurine]
Npy mRNA under co-treatment with ATP (mHypoE-41 cell line; 100 μM BAP + 100 μM ATP): unable to further induce Npy | Agrp mRNA expression (mHypoE-41 cell line; 100 μM BAP): increased | Npy mRNA expression (mHypoE-41 cell line; 100 μM BAP): increased | BAP dose with strongest Npy increase (mHypoE-41 cell line; dose curve, attenuated at 500 μM): 250 µM | Npy expression, dose curve (mHypoE-41 cell line; increasing concentrations of BAP): increases the expression of Npy | Akt phosphorylation at Ser473 upon 15 minutes of insulin exposure (Akt (PKB); 100 μM BAP 24 hours, neurons pre-treated with vehicle alone, re-exposed to 100 nM insulin): significantly increased | induction of Akt phosphorylation by BAP under insulin-induced cellular insulin resistance (Akt (PKB); 100 μM BAP, neurons pre-treated with 100 μM insulin for 24 hours): not observed | effect of PKA inhibition on BAP effect on Npy expression (mHypoE-46 cell line; 100 μM BAP + 1 μM H89, 16 hr): unable to block the effects of BAP on Npy expression | effect of PKA inhibition on BAP effect on Npy expression (mHypoE-46 cell line; 100 μM BAP + 10 μM PKI, 16 hr): unable to block the effects of BAP on Npy expression | Npy expression under co-treatment with palmitate (mHypoE-46 cell line; 100 μM BAP + 50 μM palmitate, 16 hr): rescues the palmitate-mediated increase in Npy expression | Npy mRNA under co-treatment with ATP (mHypoE-46 cell line; 100 μM BAP + 100 μM ATP, 16 hr): overcome this induction and supress Npy mRNA levels | Npy mRNA under co-treatment with UDP (mHypoE-46 cell line; 100 μM BAP + 100 μM UDP, 16 hr): still able to supress the gene | Npy mRNA under co-treatment with UTP (mHypoE-46 cell line; 100 μM BAP + 100 μM UTP, 16 hr, n=2 preliminary): still able to supress the gene | PI3K subunit (Pik3r1) gene expression (mHypoE-46 cell line; 100 μM BAP, 4 and 16 h): significantly increased | Nadpk1 expression level (mHypoE-46 cell line; 100 μM BAP, 16 h): significantly decreased | Nadpk2 expression level (mHypoE-46 cell line; 100 μM BAP, 16 h): not changed | Agrp mRNA expression (mHypoE-46 cell line; 100 μM BAP, 16 hr): increased | Npy mRNA expression (mHypoE-46 cell line; 100 μM BAP, 16 hr): supressed | 4e-BP1 (Eif4ebp1) gene expression (mHypoE-46 cell line; [2]): increased | ULK1 (Ulk1) gene expression (mHypoE-46 cell line; [2]): increased | sestrin2 (Sesn2) gene expression (mHypoE-46 cell line; [2]): increased | tuberous sclerosis complex 2 (Tsc2) gene expression (mHypoE-46 cell line; [2]): increased | Npy mRNA expression, time course (mHypoE-46 cell line; 100 μM BAP, all time points tested: 2, 4, 8, 16, and 24 hr): significantly downregulate | insulin receptor subunit beta (Insrb) expression by qRT-PCR (mHypoE-46 cell line; BAP, 16 h): increased | BAP dose at which magnitude of Npy downregulation plateaus (mHypoE-46 cell line; dose curve, 16 hr): 250 µM | lowest BAP concentration significantly decreasing Npy mRNA expression (mHypoE-46 cell line; dose curve, 16 hr): 50 µM | Agrp mRNA expression [1]: increased | Npy mRNA expression [1]: supressed | Pomc expression [1]: significantly induced
